Laboratory results: patent publication US20030044356A1, “Composition for nasal solution sprays having effective component of 1,2,3,9-tetrahydro-9-methyl-3-[(2-methyl-1H-imidazol-1-yl)methyl]-4H-carbazol-4-one)” (priority 2001, published 2003)
Where two headings read alike, the source gives them in different places.

How the values were obtained:
[1] = Permeation through excised colonic mucosa; assay type: in vitro ADME, rabbit
From the text: (§1) The results are shown in below Table 2.

[2] = Permeation through excised duodenal mucosa; assay type: in vitro ADME, rabbit
From the text: as §1

[3] = Test for intranasal stability of active ingredient in nasal mucosa extract; details: 37° C.; for Residual Concentration: 200 μg/mL added
Experimental: The fresh nasal mucosa excised from a rabbit (body weight 3.0 kg, New Zealand White female rabbit) was mounted to the Valia-Chien permeation system maintained at a constant temperature of 37° C. Each of the donor and receptor half-cells was filled with each 3.5 mL of saline, maintained at the constant temperature for 4 hours while stirring with a magnetic star-head bar, and then both extracts from the half-cells were combined and used as nasal mucosa extracts.
Ondansetron hydrochloride (200 μg/mL) was added to the obtained nasal mucosa extract, and then maintained at the temperature of 37° C. for 4 hours while gently shaking in order to confirm the physiochemical or enzymatic stability of ondansetron hydrochloride in a nasal cavity.

[4] = Comparison of bioavailability after nasal, intravenous and oral administration; assay type: in vivo, Sprague-Dawley male rats; details: rats, 2 mg/kg; for Cmax / Tmax / AUC(0-t): male, Sprague-Dawley, rat, in vivo; for AUC(0-t): read-out: AUC0-2hr
Experimental: Twenty four (24) white rats (body weight 250-300 g, Sprague-Dawley male rats) were classified into 3 groups, namely 6, 11 and 7 rats. After nasal, intravenous and oral administration to each group of rats, the bioavailability according to the different routes of administration was compared.
Ondansetron hydrochloride was dissolved in the composition obtained in Formulation Example for nasal administration, in 0.9% saline for intravenous administration, and in purified water for oral administration as vehicles, respectively. Each 2 mg/kg of the solutions was administered thereby. The blood samples were collected at the predetermined time intervals to analyze the concentration of ondansetron hydrochloride in the plasma. The bioavailibity parameters were calculated from the assay results.

[5] = Permeation through excised rectal mucosa; assay type: in vitro ADME, rabbit
From the text: as §1

[6] = assay type: in vitro ADME; details: female, New Zealand White, rabbit
From the text: as §1

[7] = inhaled or intranasal, nasal, in composition of Formulation Example

Cc1nccn1CC1CCc2c(c3ccccc3n2C)C1=O.Cl.O.O (stereo not shown) [ondansetron hydrochloride, 1,2,3,9-tetrahydro-9-methyl-3-[(2-methyl-1H-imidazol-1-yl)methyl]-4H-carbazol-4-one hydrochloride dihydrate]
Cumulative Amounts ([1]; 0.5 hr): 14.3 ± 2.2 μg/cm^2 | Cumulative Amounts ([1]; 1.0 hr): 36.5 ± 7.8 μg/cm^2 | Cumulative Amounts ([1]; 2.0 hr): 112.1 ± 14.6 μg/cm^2 | Cumulative Amounts ([1]; 4.0 hr): 294.8 ± 14.7 μg/cm^2 | Cumulative Amounts ([1]; 6.0 hr): 438.9 ± 27.2 μg/cm^2 | Cumulative Amounts ([2]; 0.5 hr): 14.8 ± 3.5 μg/cm^2 | Cumulative Amounts ([2]; 1.0 hr): 35.4 ± 8.2 μg/cm^2 | Cumulative Amounts ([2]; 2.0 hr): 94.6 ± 23.9 μg/cm^2 | Cumulative Amounts ([2]; 4.0 hr): 280.1 ± 43.2 μg/cm^2 | Cumulative Amounts ([2]; 6.0 hr): 453.1 ± 36.3 μg/cm^2 | Residual Concentration ([3]; 0 hr): 198.6 ± 1.3 µg/mL | Residual Concentration ([3]; 1 hr): 199.0 ± 5.2 µg/mL | Residual Concentration ([3]; 2 hr): 203.5 ± 3.0 µg/mL | Residual Concentration ([3]; 3 hr): 196.9 ± 0.6 µg/mL | Residual Concentration ([3]; 4 hr): 197.9 ± 9.6 µg/mL | degradation in nasal mucosa extract ([3]; for 4 hours): not nearly degraded | Cmax [4, 7]: 49.4 ± 18.7 ng/mL | Tmax [4, 7]: 9.4 min | AUC(0-t) [4, 7]: 53.2 ± 9.5 ng·h/mL | AUC(0-t) ([4]; IV injection, in 0.9% saline): 51.1 ± 7.4 ng·h/mL | Cmax ([4]; oral, in purified water): 29.7 ± 10.6 ng/mL | Tmax ([4]; oral, in purified water): 11.8 min | AUC(0-t) ([4]; oral, in purified water): 24.9 ± 12.6 ng·h/mL | AUC0-2 hr in nasal administration higher than that in oral administration [4]: 2.1 times | Cmax in oral administration lower than that in nasal administration [4]: 1.7 times | Cumulative Amounts ([5]; 0.5 hr): 6.7 ± 0.1 μg/cm^2 | Cumulative Amounts ([5]; 1.0 hr): 9.6 ± 0.9 μg/cm^2 | Cumulative Amounts ([5]; 2.0 hr): 19.3 ± 5.8 μg/cm^2 | Cumulative Amounts ([5]; 4.0 hr): 54.1 ± 6.7 μg/cm^2 | Cumulative Amounts ([5]; 6.0 hr): 164.2 ± 9.2 μg/cm^2 | Cumulative Amounts ([6]; 0.333 hr): 68.2 ± 4.7 μg/cm^2 | permeation rate through nasal mucosa relative to colonic mucosa ([6]; 30 min): 7.5 times | permeation rate through nasal mucosa relative to duodenal mucosa ([6]; 30 min): 7.2 times | permeation rate through nasal mucosa relative to rectal mucosa ([6]; 30 min): 15.8 times | Cumulative Amounts ([6]; 0.5 hr): 106.8 ± 14.9 μg/cm^2 | Cumulative Amounts ([6]; 1 hr): 180.5 ± 12.4 μg/cm^2 | Cumulative Amounts ([6]; 1.5 hr): 261.5 ± 15.1 μg/cm^2 | Cumulative Amounts ([6]; 2 hr): 289.3 ± 23.5 μg/cm^2 | Cumulative Amounts ([6]; 3 hr): 414.6 ± 22.6 μg/cm^2 | Cumulative Amounts ([6]; 4 hr): 559.4 ± 28.2 μg/cm^2
